This passage reports agonistic activity results from patent publication US8299111B2, “Compounds which modulate the CB2 receptor” (Boehringer Ingelheim International GmbH, priority 2006, dated 2012).

The target in this assay is T1, human CB2R (Homo sapiens, UniProt P34972).
T1 construct: host or cells: CHO cells
T1 sequence (P34972 whole entry): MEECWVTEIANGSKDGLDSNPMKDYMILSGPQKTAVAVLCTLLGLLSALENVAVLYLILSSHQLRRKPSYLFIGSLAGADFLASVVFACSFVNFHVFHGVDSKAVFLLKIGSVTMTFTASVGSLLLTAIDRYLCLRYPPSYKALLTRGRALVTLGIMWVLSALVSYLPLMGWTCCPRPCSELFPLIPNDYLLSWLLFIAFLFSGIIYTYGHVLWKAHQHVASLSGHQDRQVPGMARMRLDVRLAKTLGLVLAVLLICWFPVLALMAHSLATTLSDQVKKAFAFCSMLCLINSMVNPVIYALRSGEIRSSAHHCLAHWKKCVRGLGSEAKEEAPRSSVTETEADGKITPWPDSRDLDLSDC
Description: CB2R mediated modulation of cAMP synthesis. The class given is cell-based. The following applies: found through the use of the above described assays (binding and cAMP); CHO cells expressing human CB2R, forskolin-stimulated cAMP. As to the method:
B. CB2R Mediated Modulation of cAMP Synthesis:
CHO cells expressing human CB2R (Euroscreen) were plated at a density of 5000 cells per well in 384 well plates and incubated overnight at 37° C. After removing the media, the cells were treated with test compounds diluted in stimulation buffer containing 1 mM IBMX, 0.25% BSA and 10 uM Forskolin. The assay was incubated for 30 minutes at 37° C. Cells were lysed and the cAMP concentration was measured using DiscoverX -XS cAMP kit, following the manufacturer's protocol. In this setting, agonists will decrease forskolin induced production of cAMP while inverse agonists will further increase forskolin induced production of cAMP. EC50 of agonists were calculated as follows. The maximal amount of cAMP produced by forskolin compared to the level of cAMP inhibited by 1 uM CP55940 is defined as 100%. The EC50 value of each test compound was determined as the concentration at which 50% of the forskolin-stimulated cAMP synthesis was inhibited. Data was analyzed using a four-parameter logistic model. (Model 205 of XLfit 4.0).
Take `CC(C)(C(=O)Nc1ncccc1C(F)(F)F)S(=O)(=O)c1ccc(Cl)cc1` [2-(4-Chloro-benzenesulfonyl)-2-methyl-N-(3-trifluoromethyl-pyridin-2-yl)-propionamide]: the agonistic activity entry is “agonistic activity”.

With `CC(C)(C(=O)Nc1ncc(C#N)s1)S(=O)(=O)c1ccc(Cl)cc1` [2-(4-Chloro-benzenesulfonyl)-N-(5-cyano-thiazol-2-yl)-2-methyl-propionamide], the agonistic activity entry was “agonistic activity”.

As for `Cn1nc(C(C)(C)C)cc1NC(=O)C(C)(C)S(=O)(=O)c1ccc(Cl)cc1F` [N-(5-tert-Butyl-2-methyl-2H-pyrazol-3-yl)-2-(4-chloro-2-fluoro-benzenesulfonyl)-2-methyl-propionamide], the agonistic activity entry is reported as “agonistic activity”.

In the case of `Cc1ccc(S(=O)(=O)C(C)(C)C(=O)Nc2cc(-c3ccccc3)nn2C)cc1` [2-Methyl-N-(2-methyl-5-phenyl-2H-pyrazol-3-yl)-2-(toluene-4-sulfonyl)-propionamide], the agonistic activity entry is listed as “agonistic activity”.

On to `CC(C)(C(=O)Nc1nsc(-c2ccccc2)n1)S(=O)(=O)c1ccc(Cl)cc1` [2-(4-Chloro-benzenesulfonyl)-2-methyl-N-(5-phenyl-[1,2,4]thiadiazol-3-yl)-propionamide], for which the agonistic activity entry is listed as “agonistic activity”.

On to `CC(C)(C(=O)Nc1ncc(C2CCOCC2)s1)S(=O)(=O)c1ccc(Cl)cc1` [2-(4-Chloro-benzenesulfonyl)-2-methyl-N-[5-(tetrahydro-pyran-4-yl)-thiazol-2-yl]-propionamide], for which the agonistic activity entry was “agonistic activity”.

For `CCc1ccnc(NC(=O)C(C)(C)S(=O)(=O)c2ccc(C(F)(F)F)nc2)c1` [N-(4-ethylpyridin-2-yl)-2-methyl-2-{[6-(trifluoromethyl)pyridin-3-yl]sulfonyl}propanamide], the agonistic activity entry is on record as “agonistic activity”.

As for `COc1ccc(S(=O)(=O)C(C)(C)C(=O)Nc2cccc(C(F)(F)F)n2)cc1F` [2-(3-Fluoro-4-methoxy-benzenesulfonyl)-2-methyl-N-(6-trifluoromethyl-pyridin-2-yl)-propionamide], the agonistic activity entry is reported as “agonistic activity”.

As for `CC(C)(C)c1cc(NC(=O)C(C)(C)S(=O)(=O)c2ccc(F)c(Cl)c2)no1` [N-(5-tert-Butyl-isoxazol-3-yl)-2-(3-chloro-4-fluoro-benzenesulfonyl)-2-methyl-propionamide], the agonistic activity result is reported as “agonistic activity”.

As for `Cn1nc(-c2ccccc2)cc1NC(=O)C1(S(=O)(=O)c2ccc(Cl)cc2)CC1` [1-(4-Chloro-benzenesulfonyl)-cyclopropanecarboxylic acid (2-methyl-5-phenyl-2H-pyrazol-3-yl)-amide], the agonistic activity result is “agonistic activity”.

With `Cn1nc(C(C)(C)C)cc1NC(=O)C(C)(C)S(=O)(=O)c1ccc(F)cc1F` [N-(5-tert-Butyl-2-methyl-2H-pyrazol-3-yl)-2-(2,4-difluoro-benzenesulfonyl)-2-methyl-propionamide], the agonistic activity result was “agonistic activity”.

`COc1ccc(S(=O)(=O)C(C)(C)C(=O)Nc2cc(-c3cccs3)nn2C)cc1` [2-(4-Methoxy-benzenesulfonyl)-2-methyl-N-(2-methyl-5-thiophen-2-yl-2H-pyrazol-3-yl)-propionamide]: the agonistic activity result was “agonistic activity”.

For `CC(C)(C)c1cc(NC(=O)C(C)(C)S(=O)(=O)c2cc(F)ccc2F)on1` [N-(3-tert-Butyl-isoxazol-5-yl)-2-(2,5-difluoro-benzenesulfonyl)-2-methyl-propionamide], the agonistic activity result is “agonistic activity”.

For `CC1(C)CCc2cc(S(=O)(=O)C(C)(C)C(=O)Nc3cc(C(C)(C)C)on3)ccc2O1` [N-(5-tert-Butyl-isoxazol-3-yl)-2-(2,2-dimethyl-chroman-6-sulfonyl)-2-methyl-propionamide], the agonistic activity entry is listed as “agonistic activity”.

In the case of `CC(C)(C(=O)Nc1cccc(C(F)(F)F)c1)S(=O)(=O)c1ccc(Cl)cc1F` [2-[(4-chloro-2-fluorophenyl)sulfonyl]-2-methyl-N-[3-(trifluoromethyl)phenyl]propanamide], the agonistic activity entry is “agonistic activity”.

Turning to `CC(C)(C(=O)Nc1ccc(Oc2ccccc2)nc1)S(=O)(=O)c1ccc(Cl)cc1` [2-(4-Chloro-benzenesulfonyl)-2-methyl-N-(6-phenoxy-pyridin-3-yl)-propionamide], the agonistic activity result is listed as “agonistic activity”.

Regarding `Cc1cnc(NC(=O)C(C)(C)S(=O)(=O)c2ccc(C(F)(F)F)cn2)s1` [2-Methyl-N-(5-methyl-thiazol-2-yl)-2-(5-trifluoromethyl-pyridine-2-sulfonyl)-propionamide], the agonistic activity result is given as “agonistic activity”.

In the case of `CC(C)(C(=O)Nc1ccc(C(F)(F)F)cn1)S(=O)(=O)c1ccc(Cl)nc1` [2-(6-Chloro-pyridine-3-sulfonyl)-2-methyl-N-(5-trifluoromethyl-pyridin-2-yl)-propionamide], the agonistic activity entry is reported as “agonistic activity”.

With `Cn1nc(-c2ccccc2)cc1NC(=O)C(C)(C)S(=O)(=O)c1ccccc1` [2-Benzenesulfonyl-2-methyl-N-(2-methyl-5-phenyl-2H-pyrazol-3-yl)-propionamide], the agonistic activity result is “agonistic activity”.

Take `CC(C)(C(=O)Nc1cccc(C(F)(F)F)n1)S(=O)(=O)c1ccc(Cl)nc1` [2-(6-Chloro-pyridine-3-sulfonyl)-2-methyl-N-(6-trifluoromethyl-pyridin-2-yl)-propionamide]: the agonistic activity result is reported as “agonistic activity”.

On to `O=C(Nc1ccc(C(F)(F)F)cn1)C1(S(=O)(=O)c2ccc(C(F)(F)F)cc2)CC1` [1-(4-Trifluoromethyl-benzenesulfonyl)-cyclopropanecarboxylic acid (5-trifluoromethyl-pyridin-2-yl)-amide], for which the agonistic activity result is “agonistic activity”.

Consider `CC(C)(C)c1csc(NC(=O)C(C)(C)S(=O)(=O)c2cccnc2)n1` [N-(4-tert-Butyl-thiazol-2-yl)-2-methyl-2-(pyridine-3-sulfonyl)-propionamide], for which the agonistic activity entry is “agonistic activity”.

`Cc1ccc(NC(=O)C(C)(C)S(=O)(=O)c2ccc(Cl)cc2)nc1` [2-(4-Chloro-benzenesulfonyl)-2-methyl-N-(5-methyl-pyridin-2-yl)-propionamide]: the agonistic activity result is given as “agonistic activity”.

For `CC(C)(C)c1cc(NC(=O)C(C)(C)S(=O)(=O)c2ccc(F)cc2F)no1` [N-(5-tert-Butyl-isoxazol-3-yl)-2-(2,4-difluoro-benzenesulfonyl)-2-methyl-propionamide], the agonistic activity result is given as “agonistic activity”.

On to `CC(C)(C(=O)Nc1ccc2ccccc2c1)S(=O)(=O)c1ccc(Cl)cc1` [2-(4-Chloro-benzenesulfonyl)-2-methyl-N-naphthalen-2-yl-propionamide], for which the agonistic activity result is listed as “agonistic activity”.

For `CC(C)(C(=O)Nc1ccc2ccccc2n1)S(=O)(=O)c1ccc(Cl)cc1` [2-(4-Chloro-benzenesulfonyl)-2-methyl-N-quinolin-2-yl-propionamide], the agonistic activity result was “agonistic activity”.

Take `O=C(Nc1ccc(C(F)(F)F)cn1)C1(S(=O)(=O)c2ccc(C(F)(F)F)cc2)CCOCC1` [4-(4-Trifluoromethyl-benzenesulfonyl)-tetrahydro-pyran-4-carboxylic acid (5-trifluoromethyl-pyridin-2-yl)-amide]: the agonistic activity entry is recorded as “agonistic activity”.
